For nine compounds, melting point, IC50 and inhibition results are on record in patent publication US7605172B2, “Thiazolo-naphthyl acids” (Wyeth, priority 2004, dated 2009).

The structures appear in SMILES notation.

One data set addresses human PAI-1 (Homo sapiens, UniProt P05121). Put plainly: Assay for determining IC50 of inhibition of PAI-1 (Antibody Assay). Format: binding. The following applies: active PAI-1 bound to tPA-coated plate. As for the experimental part:
This assay is based upon the non-SDS dissociable interaction between tPA and active PAI-1. Assay plates are initially coated with human tPA (10 μg/ml). Test compounds of the present invention are dissolved in DMSO at 10 mM, then diluted with physiologic buffer (pH 7.5) to a final concentration of 1-50 μM. Test compounds are incubated with human PAI-1 (50 ng/ml) for 15 minutes at room temperature. The tPA-coated plate is washed with a solution of 0.05% Tween 20 and 0.1% BSA, then the plate is blocked with a solution of 3% BSA. An aliquot of the thiazolo-naphthyl acid/PAI-1 solution is then added to the tPA-coated plate, incubated at room temperature for 1 hour, and washed. Active PAI-1 bound to the plate is assessed by adding an aliquot of a 1:1000 dilution of the 33B8 monoclonal antibody against human PAI-1, and incubating the plate at room temperature for 1 hour (Molecular Innovations, Royal Oak, Mich.). The plate is again washed, and a solution of goat anti-mouse IgG-alkaline phosphatase conjugate is added at a 1:50,000 dilution in goat serum. The plate is incubated 30 minutes at room temperature, washed, and a solution of alkaline phosphatase substrate is added. The plate is incubated 45 minutes at room temperature, and color development is determined at OD405 nm. The quantitation of active PAI-1 bound to tPA at varying concentrations of the test compound is used to determine the IC50. Results are analyzed using a logarithmic best-fit equation. The assay sensitivity is 5 ng/ml of human PAI-1 as determined from a standard curve ranging from 0-100 ng/ml.

Data set [1] concerns the target T1, recombinant human plasminogen activator inhibitor-1 (PAI-1) (Homo sapiens, UniProt P05121).
T1 construct: purchased Molecular Innovations, Royal Oak, Mich
The data set can be described thus: Primary screen for the PAI-1 inhibition. In kind it is biochemical. The settings on record: for inhibition at 10 µM: 10 μM test compound; for inhibition at 25 µM: 25 μM test compound. As for the experimental part:
Test compounds are dissolved in DMSO at a final concentration of 10 mM, then diluted 100× in physiologic buffer. The inhibitory assay is initiated by the addition of the test compound (1-100 μM final concentration, maximun DMSO concentration of 0.2%) in a pH 6.6 buffer containing 140 nM recombinant human plasminogen activator inhibitor-1 (PAI-1; Molecular Innovations, Royal Oak, Mich.). Following a 1 hour incubation at room temperature, 70 nM of recombinant human tissue plasminogen activator (tPA) is added, and the combination of the test compound, PAI-1 and tPA is incubated for an additional 30 minutes. Following the second incubation, Spectrozyme-tPA (American Diagnostica, Greenwich, Conn.), a chromogenic substrate for tPA, is added and absorbance read at 405 nm at 0 and 60 minutes. Relative PAI-1 inhibition is equal to the residual tPA activity in the presence of the test compound and PAI-1. Control treatments include the complete inhibition of tPA by PAI-1 at the molar ratio employed (2:1), and the absence of any effect of the test compound on tPA alone.

Usually melting point stands for the temperature of the solid-liquid transition. A word on the IC50: it is the point on the concentration scale where inhibition reaches its midpoint. The term inhibition denotes the drop in the measured response relative to a control, in per cent.

Sequence of human PAI-1 (P05121 24-402): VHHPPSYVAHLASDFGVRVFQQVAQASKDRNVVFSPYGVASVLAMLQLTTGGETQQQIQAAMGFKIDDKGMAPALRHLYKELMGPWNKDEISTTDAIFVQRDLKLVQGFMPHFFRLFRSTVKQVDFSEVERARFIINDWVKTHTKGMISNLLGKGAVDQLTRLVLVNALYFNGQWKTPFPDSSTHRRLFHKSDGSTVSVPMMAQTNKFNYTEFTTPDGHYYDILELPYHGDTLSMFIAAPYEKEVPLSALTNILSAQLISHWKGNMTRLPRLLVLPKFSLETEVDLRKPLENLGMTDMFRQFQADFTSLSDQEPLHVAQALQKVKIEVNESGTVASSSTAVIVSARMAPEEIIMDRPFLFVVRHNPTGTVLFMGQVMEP
T1 sequence (P05121 24-402): as above

With `O=C(O)c1ccc(COc2ccc3cc(-c4csc(-c5ccccc5)n4)ccc3c2Br)cc1` (hydrate or solvate) [Example 8, 4-({[1-bromo-6-(2-phenyl-1,3-thiazol-4-yl)-2-naphthyl]oxy}methyl)benzoic acid], the melting point was 268 to 270 °C.
The compound `O=C(O)C(Cc1ccccc1)Oc1ccc2cc(-c3csc(-c4ccccc4)n3)ccc2c1` (stereo not drawn) [Example 1, 3-phenyl-2-{[6-(2-phenyl-1,3-thiazol-4-yl)-2-naphthyl]oxy}propanoic acid] yielded a melting point of 154 to 160 °C. Further, the IC50 against human PAI-1 worked out at 26.2 µM. Moreover, in data set [1], the inhibition at 10 µM stood at 4% and the inhibition at 25 µM was 62%.
The compound `c1ccc(-c2nc(-c3ccc4cc(OCc5nnn[nH]5)ccc4c3)cs2)cc1` [Example 2, 5-({[6-(2-phenyl-1,3-thiazol-4-yl)-2-naphthyl]oxy}methyl)-1H-tetraazole] returned a melting point of 226 to 228 °C. Moreover, on human PAI-1, half-maximal inhibition (IC50) required 34.3 µM. For the same compound, in data set [1], the inhibition at 10 µM worked out at 6% and the inhibition at 25 µM turned out to be 59%.
The compound `O=C(O)C(Cc1ccccc1)Oc1ccc2cc(-c3csc(-c4ccccc4)n3)ccc2c1Br` (stereo not drawn) [Example 3, 2-{[1-bromo-6-(2-phenyl-1,3-thiazol-4-yl)-2-naphthyl]oxy}-3-phenylpropanoic acid] returned a melting point of 220 to 224 °C. Also, in data set [1], the inhibition at 10 µM is 1% and the inhibition at 25 µM is 49%.
For `O=C(O)COc1ccc2cc(-c3csc(-c4ccccc4)n3)ccc2c1Br` [Example 4, {[1-bromo-6-(2-phenyl-1,3-thiazol-4-yl)-2-naphthyl]oxy}acetic acid], the melting point is 222 to 230 °C. At human PAI-1, this compound came in with an IC50 of 20.3 µM. Further, in data set [1], the inhibition at 10 µM amounted to 40% and the inhibition at 25 µM was found to be 68%.
`Brc1c(OCc2nnn[nH]2)ccc2cc(-c3csc(-c4ccccc4)n3)ccc12` [Example 5, 5-({[1-bromo-6-(2-phenyl-1,3-thiazol-4-yl)-2-naphthyl]oxy}methyl)-1H-tetraazole] showed a melting point of 227 to 231 °C. Further, in data set [1], the inhibition at 10 µM was 42% and the inhibition at 25 µM was found to be 64%.
Regarding `O=C(O)COc1ccc2cc(-c3csc(Cc4c(Cl)cccc4Cl)n3)ccc2c1` [Example 6, ({6-[2-(2,6-dichlorobenzyl)-1,3-thiazol-4-yl]-2-naphthyl}oxy)acetic acid], the melting point is 205 to 207 °C. In addition, in data set [1], the inhibition at 10 µM turned out to be 21% and the inhibition at 25 µM was found to be 43%.
For `O=C(O)C(Cc1ccccc1)Oc1ccc2cc(-c3nc(-c4ccccc4)sc3Br)ccc2c1Br` (stereo not drawn) [Example 7, 2-{[1-bromo-6-(5-bromo-2-phenyl-1,3-thiazol-4-yl)-2-naphthyl]oxy}-3-phenylpropanoic acid], in that order: 221 to 223 °C, 20% and 71%.
Consider `O=C(O)c1ccc(COc2ccc3cc(-c4csc(-c5ccccc5)n4)ccc3c2Br)cc1` [Example 8, 4-({[1-bromo-6-(2-phenyl-1,3-thiazol-4-yl)-2-naphthyl]oxy}methyl)benzoic acid], for which, in data set [1], the inhibition at 10 µM turned out to be 38% and the inhibition at 25 µM was 49%.
